According to patent US11759480B2, “Compositions and methods for CAR T cell therapy” (ENDOCYTE, INC., priority 2017, dated 2023):

Experiments:
[1] = tested on: s.c. MDA-MB-231 tumors; assay: EC17 dose escalation cycles versus weekly dosing (Example 45); type: in vivo, mice
Method: The effect of EC17 dose de-escalation was investigated on the anti-tumor activity and the toxicity (body weight changes) of CAR-T therapy. 8.5 million frozen anti-FITC CAR-T cells were thawed and i.v. injected into mice bearing s.c. MDA-MB-231 tumors (100-200 mm3). 500 nmol/kg EC17 was administered 2 days after CAR-T injection and caused sCRS in mice. […] The first group was dosed with 500 nmol/kg EC17 weekly (SIW), whereas the second group was dosed with two EC17 escalation cycles. Each cycle lasted for 2 weeks (14 days). The dosing schedule in each cycle included 5 nmol/kg EC17 at day 1, 50 nmol/kg EC17 at day 3, 500 nmol/kg EC17 on day 5. After 9 days break, the second escalation cycle started. Tumor sizes and body weights were monitored 2-3 times per week.

[2] = tested on: MDA-MB-231 tumors; assay: Host mouse cytokines after NaFL rescue (Example 48); type: in vivo, NSG mice
Method: In the first part of the study (FIG. 75), mice were treated with EC17 and FITC-CAR-T cells. When mice started to show sCRS, one dose of 60 umol/kg NaFL was injected for rescue. Mouse blood samples were then collected at both 7 hours and 27 hours post NaFL rescue. Mouse cytokine levels in blood were analyzed using a mouse inflammation panel kit (Cat. No. 740446) from BioLegend by following the manufacturer's instructions. FIGS. 76 A-E show cytokine levels 7 hours post rescue. FIGS. 77A-C show cytokine levels 27 hours post rescue.
In the second part of the study, a series of concentrations of NaFL were tested for their rescue efficiency (FIG. 78). As shown in FIGS. 79-81, mice cytokine levels in blood were also dependent on the concentrations of sodium fluorescein used for rescue, and the median effective dose is about 0.6 μmol/kg with cytokines tested (e.g. MCP-1, IL-6, and IL-10) and the mice started to respond as early as 3 hours post rescue.

[3] = tested on: MDA-MB-231 tumor; assay: Enumeration and characterization of FITC CAR T cells in blood after rescue (Example 33); type: in vivo, NSG mice
Method: Plasma was removed from predetermined volumes of whole EDTA treated blood with a 10-minute 4° C. spin at 3000 g and the resulting cell pellets were incubated with a 10-fold volume of room temperature 1×RBC lysis solution [prepared from 10× stock; Biolegend, catalog #420301] for 5 minutes, centrifuged at 400 g for 5 min, and the cell pellet was washed in a 10-fold volume of ice cold phosphate buffered saline pH=7.4 and filtered with a 40 μm nylon filter and then pelleted again. The leukocyte pellets were then resuspended in flow cytometry staining solution [1% bovine serum albumin, 50 mg/mL human IgG (Equitech Bio, cat #SLH56-0001), 0.9% sodium azide in a phosphate buffered saline, pH=7.4] supplemented with both anti-mouse FcγIII/II receptor (CD16/CD32) block [clone 2.4G2; BD Bioscience, catalog #553142 at 1:100 (v/v) dilution] and anti-human Fc Block [BD Biosciences, catalog #564220 at 1:50 (v/v) dilution]. Leukocyte surface marker staining was performed with the addition of the following fluorochrome conjugated monoclonal antibodies added to each sample for 20 minutes on ice in the dark: anti-human CD45-APCeF780 [clone HI30, eBioscience #47-0459-42 at 1:20 (v/v) dilution], anti-human CD137-BV650 [clone 4B4-1, BD Bioscience #564092 at 1:20 (v/v) dilution], anti-human CD8α-PECy7 [clone RPA-T8, BD Bioscience, catalog #557746 at 1:20 (v/v) dilution], anti-human CD4-Percpe710 [clone SK3, eBioscience catalog #46-0047-42 at 1:20 (v/v) dilution]. After leukocyte staining, cells were washed with PBS and resuspended in cold PBS containing 53,000 CountBright™ beads [Invitrogen catalog #C36950] and transferred to flow cytometry collection tubes. Flow cytometry data was collected on the Gallios flow cytometer (Beckman Coulter, Brea, Calif.), where a minimum of 15,000 CountBright™ bead events were collected in an attempt to collect enough leukocyte events for an accurate count of infused CART cells in each mouse blood sample. Determination of the concentration of CAR T cells in each blood sample was calculated according to Invitrogen's instructions. Briefly, CAR T cells were identified as human CD45+ GFP+ events and were easily distinguished and counted using the Kaluza™ flow cytometry software. CountBright™ beads were uniformly labeled with a fluorochrome not utilized in the antibody panel used to identify the CAR T cells and were easily distinguished from the leukocytes and bead events were counted. Because 53,000 CountBright™ beads were added to each sample tube, we calculated the ratio of 53,000 total beads to bead events collected per sample and set the bead ratio equivalent to the unknown number of CAR T cells in each sample divided by the known number of CAR T cell events collected. Solving for the unknown gave us the number of CAR T cells isolated from each blood sample of known volumes. The number of CAR T cells in the circulation of each infused mouse was then represented on the graphs as the total number of CART cells per 50 μL of whole blood analyzed. Statistical significance was determined by utilizing an unpaired, two-tailed, students t-test with significance set at p<0.05 for comparisons between each of the three groups of mice.
The experimental timeline is represented in FIG. 53A. On day 0, GFP+FITC-CAR T cells [clone 4M5.3] were removed from cryopreservation, thawed and then infused intravenously into MDA-MB-231 tumor bearing NSG mice at 10 million per mouse [tumors ˜250 mm^3]. […]

Row | Compound | body weight loss of escalation group ([1]; cycles of 5, 50, 500 nmol/kg at day 1, 3, 5) | mouse cytokine levels in blood (MCP-1, IL-6, IL-10, IFN-β, TNF-α) ([2]; EC17 dosed versus CAR-T without EC17) | CAR T cells in circulation ([3]; one dose EC17 500 nmol/kg) | rescue from sCRS ([1]; 6 umol/kg) | mouse cytokine levels in blood ([2]; 60 μmol/kg, 7 hours and 27 hours post rescue) | earliest response post rescue ([2]; mouse, in vivo) [h] | median effective dose (mouse MCP-1, IL-6, IL-10) ([2]; mouse, in vivo) | CAR T cells in circulation ([3]; 60 μmol/kg, 27 hours after rescue) | earliest increase of circulating CAR T cells ([3]; 0.06-6 μmol/kg) [h] | CAR T cell extravasation into the blood ([3]; 24 hours post rescue, 0.06-6 μmol/kg) | 4-1BB (CD137) on circulating CAR T cells ([3]; CAR T + EC17 + sodium fluorescein 60 μmol/kg)
1 | Nc1nc2ncc(CNc3ccc(C(=O)NC(CCC(=O)NCCNC(=S)Nc4ccc(-c5c6ccc(=O)cc-6oc6cc(O)ccc56)c(C(=O)O)c4)C(=O)O)cc3)nc2c(=O)[nH]1 (centres unmarked) [EC17, FITC-Folate] | much less than that of the EC17 SIW group | increased mouse cytokine levels | very few CAR T cells are detected in the circulation |  |  |  |  |  |  |  | 
2 | O=C([O-])c1ccccc1-c1c2ccc(=O)cc-2oc2cc([O-])ccc12.[Na+].[Na+] [sodium fluorescein] |  |  |  | successfully rescued | much lower than those in un-rescued mice | 3 | about 0.6 μmol/kg | CAR T cells reappear in the circulation | 3 | increased in a sodium fluorescein dose-dependent manner | express significant amounts of 4-1BB
